Laboratory results taken from US7169591B1, “Preparation of enantio-specific epoxides” (priority 1999, dated 2007).
Where “and” joins values, the source holds several entries; their conditions need not be identical. Equal entries are not always repeated.

Experiments:
[1] = molecular target: T1, alkene monooxygenase (Xanthobacter versatilis, UniProt O87082); details: cited from earlier work
T1 sequence (O87082 1-497): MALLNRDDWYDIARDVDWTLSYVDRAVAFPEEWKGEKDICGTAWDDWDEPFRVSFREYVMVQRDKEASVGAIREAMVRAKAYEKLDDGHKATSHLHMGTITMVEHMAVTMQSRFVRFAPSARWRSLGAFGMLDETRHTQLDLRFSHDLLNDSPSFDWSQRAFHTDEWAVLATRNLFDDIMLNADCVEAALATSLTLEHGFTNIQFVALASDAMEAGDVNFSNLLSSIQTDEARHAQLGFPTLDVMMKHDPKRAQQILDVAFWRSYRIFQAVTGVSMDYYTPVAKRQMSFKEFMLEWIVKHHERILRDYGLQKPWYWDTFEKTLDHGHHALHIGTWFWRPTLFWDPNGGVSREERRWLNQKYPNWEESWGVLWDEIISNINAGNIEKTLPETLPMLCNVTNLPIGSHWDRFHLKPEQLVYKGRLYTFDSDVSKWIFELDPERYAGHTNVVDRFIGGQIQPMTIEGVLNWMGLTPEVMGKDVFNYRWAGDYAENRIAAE

[2] = tested on: Burkholderia sp. strain ENVBF1; assay: Enantiomeric ratio of monoepoxides (chiral GC), strain ENVBF1; format: cell-based
Procedure: (§1) To determine the ratio of R and S isomers of the epoxides formed from the oxidation of the alkenes, samples were analyzed for the presence of the epoxides and alkenes by gas chromatography as described above. When the epoxide concentration neared its maximum, or when the 80–90% of the substrate was degraded, the enantiomeric ratio of epoxides produced was determined by injecting a sample of the headspace gas onto a GC equipped with a chiral separation column (RT-BDEXSE; Restek, Inc., Bellefonte, Pa.) and a flame ionization detector. The column was maintained at 50° C.

[3] = tested on: Pseudomonas pickettii PKO1 (T3MO); assay: Enantiomeric ratio of monoepoxides (chiral GC), strain PKO1; format: cell-based; details: KO1 (PKO1)
Procedure: as §1

[4] = tested on: Pseudomonas mendocina KR1 (T4MO); assay: Enantiomeric ratio of monoepoxides (chiral GC), strain KR1; format: cell-based
Procedure: as §1

[5] = tested on: Pseudomonas sp. strain ENVPC5; assay: Enantiomeric ratio of monoepoxides (chiral GC), strain ENVPC5; format: cell-based; details: PC5
Procedure: as §1

[6] = tested on: Burkholderia cepacia G4 (T2MO); assay: Enantiomeric ratio of monoepoxides (chiral GC), strain G4; format: cell-based
Procedure: as §1

[7] = molecular target: soluble methane monooxygenase (MMO) (Methylosinus trichosporium, UniProt P27353); details: cited from earlier work
Sequence of soluble methane monooxygenase (MMO) (P27353 whole entry): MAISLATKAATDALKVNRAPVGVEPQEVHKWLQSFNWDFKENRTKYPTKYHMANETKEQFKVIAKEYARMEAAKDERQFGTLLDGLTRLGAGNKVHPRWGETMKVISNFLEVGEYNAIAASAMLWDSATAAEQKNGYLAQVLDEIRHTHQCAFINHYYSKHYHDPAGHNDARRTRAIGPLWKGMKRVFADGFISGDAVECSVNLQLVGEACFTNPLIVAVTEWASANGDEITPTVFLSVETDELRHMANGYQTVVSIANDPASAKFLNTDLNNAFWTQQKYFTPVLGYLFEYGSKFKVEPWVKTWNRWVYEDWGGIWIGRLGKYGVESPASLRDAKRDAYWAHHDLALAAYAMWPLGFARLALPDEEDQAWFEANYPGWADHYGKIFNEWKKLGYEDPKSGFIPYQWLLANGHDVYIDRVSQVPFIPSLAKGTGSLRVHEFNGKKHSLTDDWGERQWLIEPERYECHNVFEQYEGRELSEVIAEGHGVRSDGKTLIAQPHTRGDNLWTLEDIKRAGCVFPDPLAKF
Sequence of soluble methane monooxygenase (MMO) (P27354 whole entry partner): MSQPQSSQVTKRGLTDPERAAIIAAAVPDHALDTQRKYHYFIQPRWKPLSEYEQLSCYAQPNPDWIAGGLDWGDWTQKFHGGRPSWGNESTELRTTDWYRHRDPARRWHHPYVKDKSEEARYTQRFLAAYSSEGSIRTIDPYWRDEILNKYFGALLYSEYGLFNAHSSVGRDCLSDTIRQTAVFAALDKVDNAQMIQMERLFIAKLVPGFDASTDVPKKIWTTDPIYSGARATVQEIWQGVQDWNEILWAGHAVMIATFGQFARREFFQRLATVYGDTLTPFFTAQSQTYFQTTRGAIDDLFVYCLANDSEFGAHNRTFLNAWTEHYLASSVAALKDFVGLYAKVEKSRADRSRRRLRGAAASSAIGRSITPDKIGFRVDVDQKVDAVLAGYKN
Sequence of soluble methane monooxygenase (MMO) (P27355 whole entry partner): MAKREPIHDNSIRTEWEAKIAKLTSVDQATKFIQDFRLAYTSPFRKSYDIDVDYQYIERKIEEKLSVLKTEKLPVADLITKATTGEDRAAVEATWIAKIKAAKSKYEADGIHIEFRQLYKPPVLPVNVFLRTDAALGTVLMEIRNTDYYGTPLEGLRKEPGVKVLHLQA
Sequence of soluble methane monooxygenase (MMO) (P27356 whole entry partner): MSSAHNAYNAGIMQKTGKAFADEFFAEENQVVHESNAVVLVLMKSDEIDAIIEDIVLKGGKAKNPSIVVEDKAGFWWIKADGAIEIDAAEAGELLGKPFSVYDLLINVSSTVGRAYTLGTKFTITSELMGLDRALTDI

[8] = tested on: Burkholderia cepacia G4; assay: Alkene degradation assay, whole cells of Burkholderia cepacia G4 (T2MO); format: cell-based; details: G4; following 30 minutes incubation
Source text: (§2) Pseudomonas mendocina KR1 (Yen et al., J. Bacteriol., 173:5315–5327 (1991)), the T4MO mutant of KR1 Pseudomonas mendocina ENVpmx1 (McClay et al., The 97th Annual Meeting of ASM, Abstract K36, page 348 (1997)), Pseudomonas pickettii PKO1 (Byrne et al., Gene, 154:65–70 (1995)), Burkholderia cepacia G4 (Shields et al., Appl. Environ. Microbiol., 55:1624–1629 (1989)), Burkholderia sp. strain ENVBF1 (McClay et al., Appl. Environ. Microbiol., 62:2716–2722 (1996)), and Pseudomonas sp. strain ENVPC5 (McClay et al., 1996, supra) were cultured overnight at 30° C. in shake flasks containing basal salts medium (BSM; 10) supplemented with 0.4% sodium glutamate. Toluene was included in the vapor phase when induction of the toluene oxygenases was desired. Prior to substrate degradation assays the cultures were harvested by centrifugation and resuspended in BSM to an optical density at 550 nm (OD550) of 2, unless otherwise indicated. A standard curve of optical density vs. protein concentration for each strain was used to calculate the amount of protein per ml of the resuspended cultures.
(§3) To determine the range of alkenes that could be degraded by the toluene monooxygenase and the degradation kinetics of the toluene monooxygenases, 5-ml aliquots of the resuspended cultures were dispensed to 25-ml serum vials and crimp sealed with Teflon™ faced septa. Gaseous alkene substrates were added as pure compounds by using a gas-tight syringe, and other alkene substrates were added from stock solutions (20% in dimethylformamide). The amount of individual alkene substrates added were as follows: 1-butene, 2-butene, and 1,3-butadiene, 2.2 μM; epoxy butane, 1,3-butadiene monoxide, and epichlorohydrine, 8 μM; 1- and 2-pentene, 9 μM; hexene, 4 μM; octadiene, 4.5 μM; 2-chloropropene, 11 μM; and, 2,3-dichloropropene, 12 μM unless otherwise indicated. The serum vials were then placed horizontally on a rotary shaker operating at 100 rpm. During incubation the temperature was maintained between 20–22° C. for the Pseudomonads and at 37° C. for E. coli. The serum vials were periodically removed from the shaker and a 10–25 μl portion of the headspace gas was withdrawn through the septa and injected onto a gas chromatograph (GC) equipped with a 30 m Vocol column (Supelco Inc. Bellefonte, Pa.) maintained at 160° C., and a flame ionization detector. This allowed the monitoring of both the alkene compounds as well as the epoxide products. The same protocol was used to detect the formation of 1,2-butanediol and butadiene diepoxide, except that 1 μl of the culture media was injected onto the column rather than the headspace gas.

[9] = tested on: Pseudomonas mendocina KR1; assay: Alkene degradation assay, whole cells of Pseudomonas mendocina KR1 (T4MO); format: cell-based
Source text: as §2, §3

[10] = tested on: E. coli (pRS202) expressing T4MO; assay: Alkene degradation assay, E. coli (pRS202) expressing T4MO; format: cell-based, Escherichia coli DH10B
Procedure: Escherichia coli DH10B containing the plasmid pRS202 (Pikus et al., Biochemistry, 35:9106–9119 (1996); Pikus et al., Biochemistry, 36:9283–9289 (1997)) was prepared in a similar manner except it was grown at 37° C. in LB media, and was resuspended to an OD550 of 4 in LB media with 0.3–1 mM IPTG to induce expression of T4MO.
as §3

[11] = tested on: Burkholderia sp. strain ENVBF1; assay: Alkene degradation assay, whole cells of Burkholderia sp. strain ENVBF1 (T4MO); format: cell-based; details: ENVBF1; following 30 minutes incubation
Source text: as §2, §3

[12] = tested on: Pseudomonas mendocina ENVpmx1; assay: Alkene degradation assay, T4MO deficient strain Pseudomonas mendocina ENVpmx1; format: cell-based
Source text: as §2, §3

[13] = tested on: wild type organisms; assay: Alkene oxidation and epoxide detection (GC, PNBP), wild type organisms; format: cell-based; details: all the wild type strains
Procedure: as §3
The only epoxides relevant to this study that were commercially available were 1,3-butadiene mono-, and diepoxide. These were used in GC analyses to determine retention times and to quantitate the conversion of 1,3-butadiene to the corresponding epoxides. To verify that the observed peaks were epoxides, a modification of the method of van Hylckama et al. (van Hylckama et al., Appl. Environ. Microbiol., 62:3304–3312 (1996)) was used, whereby epoxides were conjugated with PNBP to form intensely colored adducts of the epoxides. Serum vials were prepared as before, except that prior to sealing the vials, Durham tubes were placed inside the vials, with the opening of the Durham tube extending out of the liquid. The substrate was then added and the vials were incubated with moderate shaking at a 45° angle to prevent the culture liquid from entering the Durham tube. The transformation of the alkenes was monitored by GC analysis. […] The vials were then allowed to incubate for 8 hours before they were opened and the epoxide containing PNBP withdrawn. The total volume of PNBP solution was combined with an equal volume of acetone-triethylamine (50:50) and mixed rapidly. Epoxide/PNBP adducts were detected by spectra analysis (400–700 nm).

[14] = tested on: Pseudomonas sp. strain ENVPC5; assay: Alkene degradation assay, whole cells of Pseudomonas sp. strain ENVPC5 (T4MO); format: cell-based; details: following 30 minutes incubation
Source text: as §2, §3

[15] = tested on: T4MO; assay: Induction of T4MO by alkenes and toluene (FIG. 14); format: cell-based; details: at 120 minutes
Procedure: The data points are the average of duplicate samples, with the range shown as error bars. The relative light units registered by the 2-pentene sample at 120 minutes was approximately 10^5.

[16] = molecular target: T2, styrene monooxygenase (Pseudomonas sp, UniProt O50214); details: cited from earlier work
T2 sequence (O50214 1-415): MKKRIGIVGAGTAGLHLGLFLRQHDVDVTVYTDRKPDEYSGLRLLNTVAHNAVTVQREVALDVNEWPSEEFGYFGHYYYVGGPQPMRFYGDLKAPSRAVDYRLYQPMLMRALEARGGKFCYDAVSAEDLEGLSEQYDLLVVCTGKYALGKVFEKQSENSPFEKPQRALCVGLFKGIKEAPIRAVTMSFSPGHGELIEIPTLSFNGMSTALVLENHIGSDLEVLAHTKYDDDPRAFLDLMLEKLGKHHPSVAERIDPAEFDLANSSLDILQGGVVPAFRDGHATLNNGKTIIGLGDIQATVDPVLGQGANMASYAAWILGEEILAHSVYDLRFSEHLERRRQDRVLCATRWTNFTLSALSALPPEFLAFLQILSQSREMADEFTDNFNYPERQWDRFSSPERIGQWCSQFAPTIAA

## C=CCCl [3-chloropropene]
[1]
  (S) epoxide formed: 80%

## C=CCC [1-butene]
[1]
  R isomer formed: 94%
[2]
  monoepoxide formed, R enantiomer: 9.8%
  monoepoxide formed, S enantiomer: 90.2%
[3]
  monoepoxide formed, R enantiomer: 8.3%
  monoepoxide formed, S enantiomer: 92.7%
[4]
  monoepoxide formed, R enantiomer: 0%
[5]
  monoepoxide formed, R enantiomer: 11% and 11.3%
  monoepoxide formed, S enantiomer: 89% and 88.7%
[6]
  monoepoxide formed, R enantiomer: 6.5%
  monoepoxide formed, S enantiomer: 93.5%

## C=CC(C)C [3-methyl-butene]
[7]
  oxidation by MMO: unable to oxidize

## CC=CCC [2-pentene]
[8]
  Specific activity of toluene monooxygenase, substrate degraded: 0.16 μM substrate degraded/minute/mg protein
[9]
  initial oxidation rate: 0.33 mM/min/mg protein
[9]; following 30 minutes incubation
  Specific activity of toluene monooxygenase, substrate degraded: 0.33 μM substrate degraded/minute/mg protein
[10]
  degradation by the clone of T4MO: degraded
[11]
  Specific activity of toluene monooxygenase, substrate degraded: 0.14 μM substrate degraded/minute/mg protein
[12]
  degradation compared with the wild type strains: more rapidly and to a greater extent than the wild type strains
[13]
  degradation: efficiently degraded
[14]
  Specific activity of toluene monooxygenase, substrate degraded: 0.18 μM substrate degraded/minute/mg protein
[15]
  induction of T4MO, relative light units: approximately 10^5 relative light units

## C1=CCCCC1 [cyclohexene]
[7]
  oxidation by MMO: unable to oxidize

## C=Cc1ccccc1 [styrene]
[16]
  enantiomer excess of (S)-styrene oxide formed: > 99%
